Read-outs that look alike come from different tables or passages of the source.
How the values were obtained:
[1] = molecular target: T1, PI3K (p110α) kinase (Homo sapiens, UniProt P42336); experiment: PI3K (p110α) kinase assay (PI3K HTRF Assay); type: biochemical; conditions: in vitro enzyme activity assay, 10 μM PIP2, read-out: PI3K (p110α) enzyme activity_IC50
T1 construct: made in house
Source text: Conclusion: The compounds of the present invention have significant inhibitory effect on mTOR/PI3K. Example In Vitro Enzyme Activity Assay 1. The experimental procedures and methods of PI3K (p110α) kinase assay: 1) Experimental Objective
The objective was to evaluate the inhibitory effect of the subject samples on PI3K (p110α) kinase activity at molecular level.
(§1) PerkinElmer Envision 2104 Multilabel Reader.
PI 3-Kinase HTRF Assay (384 wells) was purchased from Upstate (Millipore) company: PI3K (p110α) kinase was made in our lab.
c) Experimental procedures
Each solution was prepared according to the instructions provided in the Kinase PI 3-Kinase HTRF Assay. The kinase reaction was carried out in white 384-well plates (Proxiplate-384 plus), 0.5 μl of DMSO (the concentration was consistent with the highest concentration of DMSO for the test compounds) was added to each of the two control wells with and without enzyme, and then 0.5 μl of a series of different concentrations of the test compounds was added to each well to be tested. The kinase reaction liquid (10 μM substrate PIP2, 0.5 ng PI3K (p110α)) was added to the control well containing enzyme and the test wells, while only working reaction liquid (10 μM substrate PIP2) was added to the control well without enzyme, and finally, 5 μM ATP working reaction liquid was added to activate the reaction. After the reaction was carried out at room temperature for 30 min, the stop solution was added to each well to terminate the kinase reaction. After the mixture was fully mixed, the detection liquid was added to each well and fully mixed. The plate was sealed with Parafilm and placed in the dark. After incubated overnight, the mixture was detected.
(§2) The IC50 value was calculated through the GraphPad software after plotting the relative inhibitory rate versus concentration.

[2] = test system: MCF-7 cells; experiment: In vitro test of cell activity (MCF-7 cells, insulin stimulation, ELISA-One fluorescence); type: cell-based; conditions: Homo sapiens, MCF7, MCF-7 cells; for inhibition at 0.25 µM: conc. 0.25 μM
Outline: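 MCF-7 cells, seeded at 2.5×10^4/well in 10% FBS medium, were given compound in serum-free medium for 2 h at one concentration (screen) or a series (IC50). Insulin stimulation followed at […] final for 30 min; lysates assayed by ELISA-One sandwich immunoassay with fluorescence read-out.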

[3] = molecular target: T2, mTOR kinase (Homo sapiens, UniProt P42345); experiment: mTOR kinase assay; type: biochemical; conditions: in vitro enzyme activity assay; ATP 100 μM; read-out: mTOR enzyme activity_IC50
T2 construct: made in house
Experimental: 2. Experimental Procedures and Methods of the mTOR Kinase Assay
The objective was to evaluate the inhibitory effect of the subject samples on the mTOR kinase activity at molecular level.
as §1
The mTOR Kinase Assay (384 wells) was purchased from PerkinElmer company; the mTOR kinase was made in our lab.
Each solution was prepared according to the instructions provided in the mTOR Kinase Assay. The kinase reaction was carried out in white 384-well plates (Proxiplate-384 plus). 2.5 μl of DMSO (the concentration was consistent with the highest concentration of DMSO for the test compounds) was added to each of the two control wells with and without enzyme, and then 2.5 μl of a series of different concentrations of the test compounds was added to each test well. ULight-4E-BP1 (Thr37/46) PeptideATP mix (the final concentration of ATP was 100 μM) and 5 μl of mTOR kinase were added to the control well containing enzyme as well as the test wells, and fully mixed. The plate was sealed with Parafilm and incubated for 2 h. Then 5 μl of stop solution was added and incubated for 5 minutes. Afterwards, 5 μl of Detection Mix (Eu-anti-phospho-4E-BP1 (Thr37/46) Antibody, the final concentration was 2 nM) was added and incubated for 1 h, and then the mixture was detected.
as §2

T1 sequence (P42336 whole entry): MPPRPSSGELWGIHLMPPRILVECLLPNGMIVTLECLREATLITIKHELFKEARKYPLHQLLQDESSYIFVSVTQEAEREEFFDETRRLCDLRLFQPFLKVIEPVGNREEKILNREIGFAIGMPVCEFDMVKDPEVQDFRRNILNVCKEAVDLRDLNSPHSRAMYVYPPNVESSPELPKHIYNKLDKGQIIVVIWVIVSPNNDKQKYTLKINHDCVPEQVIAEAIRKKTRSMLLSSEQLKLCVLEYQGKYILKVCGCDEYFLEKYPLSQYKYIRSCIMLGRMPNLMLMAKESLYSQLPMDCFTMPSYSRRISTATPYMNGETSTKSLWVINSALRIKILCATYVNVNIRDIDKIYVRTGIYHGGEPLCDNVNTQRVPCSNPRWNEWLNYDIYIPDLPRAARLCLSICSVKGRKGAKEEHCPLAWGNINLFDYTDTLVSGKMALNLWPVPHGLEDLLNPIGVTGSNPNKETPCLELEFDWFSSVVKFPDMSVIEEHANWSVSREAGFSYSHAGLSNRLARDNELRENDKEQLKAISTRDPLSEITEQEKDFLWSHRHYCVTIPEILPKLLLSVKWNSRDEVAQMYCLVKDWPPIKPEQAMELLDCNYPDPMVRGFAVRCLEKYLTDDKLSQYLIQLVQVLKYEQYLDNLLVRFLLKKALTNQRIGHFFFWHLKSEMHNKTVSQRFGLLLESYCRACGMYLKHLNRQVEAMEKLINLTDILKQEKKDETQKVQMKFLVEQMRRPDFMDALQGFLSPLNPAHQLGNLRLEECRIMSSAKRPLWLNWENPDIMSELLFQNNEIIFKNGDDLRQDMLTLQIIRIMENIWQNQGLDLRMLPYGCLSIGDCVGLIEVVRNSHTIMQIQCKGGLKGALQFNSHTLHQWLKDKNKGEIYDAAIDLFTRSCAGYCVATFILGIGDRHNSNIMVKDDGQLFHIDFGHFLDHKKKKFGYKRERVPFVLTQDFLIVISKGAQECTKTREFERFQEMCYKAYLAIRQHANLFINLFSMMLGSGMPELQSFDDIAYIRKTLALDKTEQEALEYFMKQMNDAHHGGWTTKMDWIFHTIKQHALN

SMILES | IC50 [1] | IC50 ([2]; read-out: IC50 p-AKT) | other results
COCCOc1cnc2ccc(-c3cnc(OC)c(NS(=O)(=O)c4ccc(C)cc4C)c3)cn2c1=O [compound 244] | ≤ 1 nM | 50 to 100 nM | –
COc1ncc(-c2ccc3ncc(Cl)c(=O)n3c2)cc1NS(=O)(=O)c1sccc1Cl [compound 150] | ≤ 1 nM | ≤ 50 nM | IC50 [3]: 1 to 10 nM; inhibition at 0.25 µM ([2]; read-out: % inhibition AKT): 93.5%; inhibition at 0.25 µM ([2]; read-out: % inhibition p70s6k): 82.3%; IC50 ([2]; read-out: IC50 p-p70S6K): ≤ 50 nM
COCCOc1cnc2ccc(-c3cnc(OC)c(NS(=O)(=O)c4ccc(F)cc4C4CC4)c3)cn2c1=O [compound 284] | 1 to 10 nM | – | –
COCCOc1cnc2ccc(-c3cnc(OC)c(NS(=O)(=O)c4ccc(F)cc4C)c3)cn2c1=O [compound 252] | 1 to 10 nM | > 250 nM | –
COCCOc1cnc2ccc(-c3cnc(OC)c(NS(=O)(=O)c4cc(C)c(Cl)cc4Cl)c3)cn2c1=O [compound 258] | 1 to 10 nM | – | –
COCCOc1cnc2ccc(-c3cnc(OC)c(NS(=O)(=O)c4cc(F)ccc4C)c3)cn2c1=O [compound 260] | ≤ 1 nM | 100 to 250 nM | –
COc1ncc(-c2ccc3ncc(OCCOCC(F)(F)F)c(=O)n3c2)cc1NS(=O)(=O)c1ccc(F)cc1Cl [compound 242] | ≤ 1 nM | 100 to 250 nM | –
COc1ncc(-c2ccc3ncc(OCC4COC4)c(=O)n3c2)cc1NS(=O)(=O)c1ccc(C)cc1Cl [compound 277] | ≤ 1 nM | ≤ 50 nM | –
COc1ncc(-c2ccc3ncc(OCC4COC4)c(=O)n3c2)cc1NS(=O)(=O)c1ccc(C)cc1C [compound 251] | ≤ 1 nM | 100 to 250 nM | –
COc1ncc(-c2ccc3ncc(OCC4COC4)c(=O)n3c2)cc1NS(=O)(=O)c1c(Cl)cccc1Cl [compound 249] | ≤ 1 nM | ≤ 50 nM | –
COCCOc1cnc2ccc(-c3cnc(OC)c(NS(=O)(=O)c4ccc(Cl)cc4Cl)c3)cn2c1=O [compound 263] | ≤ 1 nM | 50 to 100 nM | –
COCCOc1cnc2ccc(-c3cnc(OC)c(NS(=O)(=O)c4ccc(F)c(F)c4)c3)cn2c1=O [compound 246] | ≤ 1 nM | 100 to 250 nM | –
COc1ncc(-c2ccc3ncc(OCC4COC4)c(=O)n3c2)cc1NS(=O)(=O)c1ccc(F)c(F)c1 [compound 250] | ≤ 1 nM | 50 to 100 nM | –
COCCOc1cnc2ccc(-c3cnc(OC)c(NS(=O)(=O)c4c(F)cccc4F)c3)cn2c1=O [compound 265] | ≤ 1 nM | 100 to 250 nM | –
COCCOc1cnc2ccc(-c3cnc(OC)c(NS(=O)(=O)c4ccc(Cl)cc4F)c3)cn2c1=O [compound 271] | ≤ 1 nM | 50 to 100 nM | –
COc1ncc(-c2ccc3ncc(OCC4COC4)c(=O)n3c2)cc1NS(=O)(=O)c1ccccc1Cl [compound 257] | ≤ 1 nM | ≤ 50 nM | –
COCCOc1cnc2ccc(-c3cnc(OC)c(NS(=O)(=O)c4cccc(C)c4)c3)cn2c1=O [compound 247] | ≤ 1 nM | 100 to 250 nM | –
COCCOc1cnc2ccc(-c3cnc(OC)c(NS(=O)(=O)c4c(C)cc(C)cc4C)c3)cn2c1=O [compound 268] | 1 to 10 nM | 100 to 250 nM | –
COCCOc1cnc2ccc(-c3cnc(OC)c(NS(=O)(=O)c4cc(C)ccc4C)c3)cn2c1=O [compound 262] | ≤ 1 nM | 50 to 100 nM | –
COCCOc1cnc2ccc(-c3cnc(OC)c(NS(=O)(=O)c4cc(C)c(Cl)cc4F)c3)cn2c1=O [compound 269] | 1 to 10 nM | – | –
COCCOc1cnc2ccc(-c3cnc(OC)c(NS(=O)(=O)c4cccc(Cl)c4C)c3)cn2c1=O [compound 261] | ≤ 1 nM | 50 to 100 nM | –
COCCOc1cnc2ccc(-c3cnc(OC)c(NS(=O)(=O)c4cnc(C)cc4C)c3)cn2c1=O [compound 282] | ≤ 1 nM | – | –
COc1ncc(-c2ccc3ncc(OCC4COC4)c(=O)n3c2)cc1NS(=O)(=O)c1ccc(F)cc1C [compound 255] | ≤ 1 nM | 100 to 250 nM | –

— patent US9868737B2, “Pyridino[1,2-A]pyrimidone analogue used as MTOR/P13K inhibitor” (CISEN PHARMACEUTICAL CO., LTD., priority 2014, dated 2018)
